According to patent US8551988B2, “Benzimidazole derivatives: preparation and pharmaceutical applications” (Mei Pharma, Inc., priority 2003, dated 2013):
pIC50: −log10 of the molar value. Read-outs that look alike come from different tables or passages of the source.

Experiments:
[1] = target: HDAC1 enzyme (recombinant GST-HDAC1) (Homo sapiens (Human), UniProt Q13547); assay: In vitro HDAC assay (BIOMOL fluorescent-based HDAC activity assay), HDAC1; format: biochemical
Description: (§1) The assay has been carried out in 96 well format and the BIOMOL fluorescent-based HDAC activity assay has been applied. […] Flur de lys Developer was added and the reaction was incubated for 10 min. Briefly, deacetylation of the substrate sensitizes it to the developer, which then generates a fluorophore (symbol). The fluorophore is excited with 360 nm light and the emitted light (460 nm) is detected on a fluorometric plate reader (Tecan Ultra Microplate detection system, Tecan Group Ltd.).
(§2) The analytical software, Prism 3.0 has been used to generate IC50 from a series of data.

[2] = target: HDAC8 enzyme (recombinant GST-HDAC8) (Homo sapiens (Human), UniProt Q9BY41); assay: In vitro HDAC assay (BIOMOL fluorescent-based HDAC activity assay), HDAC8; format: biochemical
Chain of HDAC8 enzyme (recombinant GST-HDAC8) (Q9BY41 whole entry): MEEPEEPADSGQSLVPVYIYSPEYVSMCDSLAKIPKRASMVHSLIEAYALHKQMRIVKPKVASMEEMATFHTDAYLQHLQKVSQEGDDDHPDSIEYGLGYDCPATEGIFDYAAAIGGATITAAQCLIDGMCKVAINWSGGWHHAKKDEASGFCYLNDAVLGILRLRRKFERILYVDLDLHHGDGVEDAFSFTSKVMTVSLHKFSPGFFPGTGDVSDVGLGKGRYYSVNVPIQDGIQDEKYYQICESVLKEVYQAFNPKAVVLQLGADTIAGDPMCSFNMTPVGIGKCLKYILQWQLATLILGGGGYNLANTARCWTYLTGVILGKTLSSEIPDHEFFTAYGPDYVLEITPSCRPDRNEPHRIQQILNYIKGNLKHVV
Description: as §1, §2

[3] = read-out: HDAC1 Enzyme Activity IC50
[4] = read-out: HDAC8 Enzyme Activity IC50
[5] = Free base, read-out: IC50 (HDAC1)
[6] = Free base, read-out: IC50 (HDAC8)

Chain of HDAC1 enzyme (recombinant GST-HDAC1) (Q13547 whole entry): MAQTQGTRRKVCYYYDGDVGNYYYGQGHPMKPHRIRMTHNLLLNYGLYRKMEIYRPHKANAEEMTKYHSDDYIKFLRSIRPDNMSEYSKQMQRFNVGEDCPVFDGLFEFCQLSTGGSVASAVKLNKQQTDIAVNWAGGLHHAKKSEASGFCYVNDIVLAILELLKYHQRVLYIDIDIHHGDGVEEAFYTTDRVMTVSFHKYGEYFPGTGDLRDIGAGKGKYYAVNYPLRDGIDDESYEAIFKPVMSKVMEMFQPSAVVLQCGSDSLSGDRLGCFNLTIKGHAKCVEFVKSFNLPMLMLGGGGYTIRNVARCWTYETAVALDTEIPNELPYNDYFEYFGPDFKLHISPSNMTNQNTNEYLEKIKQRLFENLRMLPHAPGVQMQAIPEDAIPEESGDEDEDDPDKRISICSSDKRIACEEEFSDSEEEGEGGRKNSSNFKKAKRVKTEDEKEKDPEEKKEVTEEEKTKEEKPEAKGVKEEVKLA

Compound: CC(Cc1nc2cc(/C=C/C(=O)NO)ccc2n1CCCO)c1ccccc1 (centres unmarked) [Compound 1, N-Hydroxy-3-[1-(3-hydroxy-propyl)-2-(2-phenyl-propyl)-1H-benzimidazol-5-yl]-acrylamide]
- pIC50 [1, 3]: 7.29
- pIC50 [2, 4]: 6.92

Compound: COc1cc(Cn2c(CCc3ccccc3)nc3cc(/C=C/C(=O)NO)ccc32)cc(OC)c1OC [Compound 2, N-Hydroxy-3-[1-(3,4,5-trimethoxybenzyl)-2-(2-phenyl-ethyl)-1H-benzimidazol-5-yl]-acrylamide]
- pIC50 [1, 5]: 7.37
- pIC50 ([1]; Salt of CF3COOH, read-out: IC50 (HDAC1)): 7.31
- pIC50 [1, 3]: 7.59
- pIC50 [2, 6]: 6.57
- pIC50 [2, 4]: 6.45

Compound: COc1cc(-c2nc3cc(/C=C/C(=O)NO)ccc3n2CCCO)ccc1OCc1ccccc1 [Compound 4, N-Hydroxy-3-[2-(4-benzyloxy-3-methoxy-phenyl)-1-(3-hydroxy-propyl)-1H-benzimidazole-5-yl]-acrylamide]
- pIC50 [1, 3]: 5.87
- pIC50 [2, 4]: 6.10

Compound: COc1ccc(-c2nc3cc(/C=C/C(=O)NO)ccc3n2CCO)cc1 [Compound 5, N-Hydroxy-3-[1-(2-hydroxy-ethyl)-2-(4-methoxy-phenyl)-1H-benzimidazole-5-yl]-acrylamide]
- pIC50 [1, 3]: 5.36
- pIC50 [2, 4]: 6.40

Compound: COc1cc(-c2nc3cc(/C=C/C(=O)NO)ccc3n2CC(O)CO)ccc1OCc1ccccc1 (centres unmarked) [Compound 7, N-Hydroxy-3-[2-(4-benzyloxy-3-methoxy-phenyl)-1-(2,3-hydroxy-propyl)-1H-benzimidazole-5-yl]-acrylamide]
- pIC50 [1, 3]: 5.82
- pIC50 [2, 4]: 6.47

Compound: O=C(/C=C/c1ccc2c(c1)nc(CCc1ccccc1)n2CC(O)CO)NO (centres unmarked) [Compound 8]
- pIC50 [2, 4]: 6.34

Compound: O=C(/C=C/c1ccc2c(c1)nc(-c1ccccn1)n2CC(O)CO)NO (centres unmarked) [Compound 9, N-Hydroxy-3-[1-(2,3-hydroxy-propyl)-2-(2-pyridyl)-1H-benzimidazol-5-yl]-acrylamide]
- pIC50 [1, 3]: 5.87
- pIC50 [2, 4]: 6.46

Compound: O=C(/C=C/c1ccc2c(c1)nc(-c1ccncc1)n2CCO)NO [Compound 10, N-Hydroxy-3-[1-(2-hydroxy-ethyl)-2-(4-pyridyl)-1H-benzimidazol-5-yl]-acrylamide]
- pIC50 [1, 3]: 5.58
- pIC50 [2, 4]: 6.05

Compound: O=C(/C=C/c1ccc2c(c1)nc(-c1ccncc1)n2CCCO)NO [Compound 11, N-Hydroxy-3-[1-(3-hydroxy-propyl)-2-(4-pyridyl)-1H-benzimidazol-5-yl]-acrylamide]
- pIC50 [1, 3]: 6.07
- pIC50 [2, 4]: 6.79

Compound: O=C(/C=C/c1ccc2c(c1)nc(CCc1ccccc1)n2Cc1cccnc1)NO [Compound 12, N-Hydroxy-3-[1-(3-pyridylmethyl)-2-(2-phenyl-ethyl)-1H-benzimidazol-5-yl]-acrylamide]
- pIC50 [1, 3]: 6.88
- pIC50 [2, 4]: 6.69

Compound: O=C(/C=C/c1ccc2c(c1)nc(-c1ccccn1)n2CCCO)NO [Compound 13, N-Hydroxy-3-[1-(3-hydroxy-propyl)-2-(2-pyridyl)-1H-benzimidazol-5-yl]-acrylamide]
- pIC50 [2, 4]: 6.85

Compound: O=C(/C=C/c1ccc2c(c1)nc(CCc1ccccc1)n2CCCO)NO [Compound 14, N-Hydroxy-3-[1-(3-hydroxy-propyl)-2-phenethyl-1H-benzimidazol-5-yl]-acrylamide]
- pIC50 [1, 3]: 6.77
- pIC50 [2, 4]: 6.60

Compound: COCCCn1c(CCc2ccccc2)nc2cc(/C=C/C(=O)NO)ccc21 [Compound 15]
- pIC50 [2, 4]: 6.50

Compound: O=C(/C=C/c1ccc2c(c1)nc(CCc1ccccc1)n2Cc1ccccn1)NO [Compound 16, N-Hydroxy-3-(2-phenethyl-1-(pyridin-2-yl)methyl-1H-benzimidazol-5-yl)-acrylamide]
- pIC50 [1, 3]: 6.71
- pIC50 [2, 4]: 6.44

Compound: CN(C)CC(C)(C)Cn1c(CCc2ccccc2)nc2cc(/C=C/C(=O)NO)ccc21 [Compound 17, N-Hydroxy-3-[1-(3-Dimethylamino-2,2-dimethyl-propyl)-2-phenethyl-1H-benzimidazol-5-yl]-acrylamide]
- pIC50 [1, 5]: 7.54
- pIC50 ([1]; Salt of HCl, read-out: IC50 (HDAC1)): 7.36
- pIC50 ([1]; Salt of Methane sulfonic acid, read-out: IC50 (HDAC1)): 7.29
- pIC50 [2, 6]: 6.45

Compound: O=C(/C=C/c1ccc2c(c1)nc(CCc1ccccc1)n2CCc1ccccn1)NO [Compound 18]
- pIC50 [2, 4]: 6.54

Compound: O=C(/C=C/c1ccc2c(c1)nc(COCc1ccccc1)n2CCCO)NO [Compound 19]
- pIC50 [1, 3]: 6.78
- pIC50 [2, 4]: 6.84

Compound: CC(C)Cc1nc2cc(/C=C/C(=O)NO)ccc2n1CCc1ccccn1 [Compound 22]
- pIC50 [2, 4]: 6.63

Compound: O=C(/C=C/c1ccc2c(c1)nc(CCc1ccccc1)n2CCc1ccccc1)NO [Compound 26, N-Hydroxy-3-(1,2-Diphenethyl-1H-benzimidazol-5-yl]-acrylamide]
- pIC50 [1, 3]: 6.06

Compound: O=C(/C=C/c1ccc2c(c1)nc(COCc1ccccc1)n2CCc1cccnc1)NO [Compound 28]
- pIC50 [2, 4]: 6.52

Compound: CC(C)Cc1nc2cc(CCC(=O)NO)ccc2n1CCCO [Compound 29, N-Hydroxy-3-[1-(3-Hydroxy-propyl)-2-isobutyl-1H-benzimidazol-5-yl]-propionamide]
- pIC50 [2, 4]: 4.47

Compound: CCCn1c(CCc2ccccc2)nc2cc(/C=C/C(=O)NO)ccc21 [Compound 36, N-Hydroxy-3-(2-phenethyl-1-propyl-1H-benzimidazol-5-yl}-acrylamide]
- pIC50 [1, 3]: 6.64

Compound: CCCn1cnc2cc(/C=C/C(=O)NO)ccc21 [Compound 37, N-Hydroxy-3-(1-propyl-1H-benzimidazol-5-yl}-acrylamide]
- pIC50 [1, 3]: 6.05

Compound: CCn1cnc2cc(/C=C/C(=O)NO)ccc21 [Compound 39, N-Hydroxy-3-(1-Ethyl-1H-benzimidazol-5-yl)-acrylamide]
- pIC50 [1, 3]: 5.91

Compound: O=C(NO)c1ccc2c(c1)nc(CCc1ccccc1)n2CCCO [Compound 40, 1-(3-Hydroxy-propyl)-2-phenethyl-1H-benzimidazol-5-carboxylic acid hydroxyamide]
- pIC50 [2, 4]: 6.36

Compound: CC(Cc1nc2cc(/C=C/C(=O)NO)ccc2n1CCc1cccnc1)c1ccccc1 (centres unmarked) [Compound 41]
- pIC50 [2, 4]: 6.80

Compound: Cn1cnc2cc(/C=C/C(=O)NO)ccc21 [Compound 49, N-Hydroxy-3-(1-methyl-1H-benzimidazol-5-yl)-acrylamide]
- pIC50 [1, 3]: 5.85

Compound: O=C(/C=C/c1ccc2[nH]c(CCc3ccccc3)nc2c1)NO [Compound 50, N-Hydroxy-3-(2-phenethyl-1H-benzimidazol-5-yl)-acrylamide]
- pIC50 [1, 3]: 6.76

Compound: O=C(/C=C/c1ccc2[nH]cnc2c1)NO [Compound 51, N-Hydroxy-3-(1H-benzimidazol-5-yl)-acrylamide]
- pIC50 [1, 3]: 6.05

Compound: Cn1c(CCCc2ccccc2)nc2cc(/C=C/C(=O)NO)ccc21 [Compound 52, N-Hydroxy-3-[1-methyl-2-(3-phenyl-propyl)-1H-benzimidazol-5-yl]-acrylamide]
- pIC50 [1, 3]: 6.80

Compound: Cn1c(CNC(=O)Cc2ccccc2)nc2cc(/C=C/C(=O)NO)ccc21 [Compound 54]
- pIC50 [1, 3]: 7.00

Compound: CN(C)CCCCn1c(CCc2ccccc2)nc2cc(/C=C/C(=O)NO)ccc21 [Compound 57, N-Hydroxy-3-[1-(4-dimethylamino-butyl)-2-phenethyl-1H-benzimidazol-5-yl]-acrylamide]
- pIC50 [1, 3]: 6.82

Compound: Cn1c(CNCc2ccccc2)nc2cc(/C=C/C(=O)NO)ccc21 [Compound 60, N-Hydroxy-3-[2-(benzylamino-methyl)-1-methyl-1H-benzimidazol-5-yl]-acrylamide]
- pIC50 [1, 3]: 6.94

Compound: CN(C)CCCn1c(CCc2ccccc2)nc2cc(/C=C/C(=O)NO)ccc21 [Compound 63, N-Hydroxy-3-[1-(3-dimethylamino-propyl)-2-phenethyl-1H-benzimidazol-5-yl]-acrylamide]
- pIC50 [1, 3]: 6.79

Compound: CCn1c(CNCc2ccccc2)nc2cc(/C=C/C(=O)NO)ccc21 [Compound 64, N-Hydroxy-3-[2-(benzylamino-methyl)-ethyl-1H-benzimidazol-5-yl]-acrylamide]
- pIC50 [1, 3]: 6.64

Compound: CCn1c(CCNCc2ccccc2)nc2cc(/C=C/C(=O)NO)ccc21 [Compound 74, N-Hydroxy-3-[2-(2-benzylamino-ethyl)-1-ethyl-1H-benzimidazol-5-yl]-acrylamide]
- pIC50 [1, 3]: 6.43

Compound: O=C(/C=C/c1ccc2c(c1)nc(CCc1ccccc1)n2CCCN1CCCC1)NO [Compound 82, N-Hydroxy-3-[2-phenethyl-1-(3-pyrrolidin-1-yl-propyl)-1H-benzimidazol-5-yl]-acrylamide]
- pIC50 [1, 3]: 6.52

Compound: CN(C)CC(C)(C)Cn1c(CCc2cccnc2)nc2cc(/C=C/C(=O)NO)ccc21 [Compound 86, N-Hydroxy-3-[1-(3-Dimethylamino-2,2-dimethyl-propyl)-2-(2-pyridin-3-yl-ethyl)-1H-benzimidazol-5-yl]-acrylamide]
- pIC50 [1, 3]: 6.40

Compound: CN(C)CC(C)(C)Cn1c(SCc2ccccc2)nc2cc(/C=C/C(=O)NO)ccc21 [Compound 89, N-Hydroxy-3-[2-benzylsulfanyl-1-(3-dimethylamino-2-2,dimethyl-propyl)-1H-benzimidazol-5-yl]-acrylamide]
- pIC50 [1, 3]: 6.94

Compound: CN(C)CC(C)(C)Cn1c([S+]([O-])Cc2ccccc2)nc2cc(/C=C/C(=O)NO)ccc21 (centres unmarked) [Compound 91]
- pIC50 [1, 3]: 7.52

Compound: CCn1c(Cc2ccccc2)nc2cc(/C=C/C(=O)NO)ccc21 [Compound 92, N-Hydroxy-3-(2-benzyl-1-ethyl-1H-benzimidazol-5-yl)-acrylamide]
- pIC50 [1, 3]: 6.77

Compound: CCn1c(CCCc2c[nH]c3ccccc23)nc2cc(/C=C/C(=O)NO)ccc21 [Compound 93, N-Hydroxy-3-(1-ethyl-2-[3-(1H-indol-3-yl)-propyl]-1H-benzimidazol-5-yl)-acrylamide]
- pIC50 [1, 3]: 7.19

Compound: COc1cccc(CCc2nc3cc(/C=C/C(=O)NO)ccc3n2CC(C)(C)CN(C)C)c1 [Compound 94, N-Hydroxy-3-(1-(3-dimethylamino-2,2-dimethyl-propyl)-2-[2-(3-methoxy-phenyl)-ethyl]-1H-benzimidazol-5-yl)-acrylamide]
- pIC50 [1, 3]: 7.28

Compound: CCn1c(CCCOc2ccccc2)nc2cc(/C=C/C(=O)NO)ccc21 [Compound 96, N-Hydroxy-3-[1-ethyl-2-(3-phenoxy-propyl)-1H-benzimidazol-5-yl]-acrylamide]
- pIC50 [1, 3]: 6.90
